In patent US10265378B2, “Combination therapy for head and neck cancer” (Cornell University, priority 2014, dated 2019):

System: pathways (Reactome, KEGG, MouseCyc) in mouse tongue
Assay: Pathway enrichment analysis (ConsensusPathDB) of RNA-Seq data
[1] = down-regulated vs. 4-NQO group, KEGG
[2] = down-regulated vs. 4-NQO group, Reactome
[3] = upregulated vs. 4-NQO group, KEGG
[4] = upregulated vs. 4-NQO group, MouseCyc
[5] = upregulated vs. 4-NQO group, Reactome

Description: RNA-Seq analysis of mRNA transcriptome. Representative tongue samples were chosen for the RNA-Seq analysis: untreated (n=5), 4-NQO treatment group (n=3), 4N+B (n=4), 4N+C (n=4), and 4N+B+C (n=5). The extraction of total cellular RNA from mouse tissues was carried out using the RNeasy kit (Qiagen). Subsequent RNA preparation steps were carried out at the Genomics Resources Core Facility of WCMC. The measurement of RNA integrity was determined using the Agilent 2100 BioAnalyzer (Agilent Technologies). Samples with RNA integrity number (RIN) values of 10 were used to construct cDNA libraries. mRNA was purified by using pre-prepared Sera-mag Magnetic Oligo(dT) Beads from Illumina Inc. (SanDiego, Calif.), subjected to thermal fragmentation, and reverse transcribed to first strand cDNA. Following the removal of mRNA strands by RNaseH, first strand cDNAs were used as templates to produce double strand cDNAs, and the overhangs resulting from fragmentation were repaired to blunt ends. An ‘A’ base was added to the 3′ end of cDNAs and subsequently the cDNAs were ligated to Illumina paired end (PE) adaptors that have a single ‘T’ base overhang at their 3′ end. The cDNA-adaptor libraries were purified and enriched by 15 cycles of PCR. The enriched libraries were hybridized to a flow cell and amplified, resulting in ultra-high density flow cells with millions of clusters, each containing about 1,000 copies of the templates. The double stranded cDNA-adaptors were denatured and converted into single strand DNA, and then the template cDNAs were amplified one more time isothermally to produce surface-bound colonies. The clonal DNA clusters were linearized, free 3′ OH ends blocked, denatured, hybridized to sequencing primers, and sequenced. The sequencing was conducted by running 4 samples per lane with 51 pair-end cycles on the HISeq2000/1000. The Sequencing-by-Synthesis process used reversible terminators and a DNA polymerase modified to accept reversible terminator nucleotides. After each synthesis cycle the fluorescence of clusters was imaged with high sensitivity. Then the sequencing images were analyzed in three steps, image analysis, base calling, and sequence analysis. The Tophat software was used to align raw sequencing reads against the UCSC mm9 mouse reference genome, and Cufflinks software was employed to measure transcript abundances in the unit of fragments per kilobase of exon model per million mapped reads (FPKM), as well as to perform statistical analysis on the changes in gene expression. The heat maps for genes of interest were generated by R package software.

## O=C(O)c1ccc(-c2ccc3cc(O)c(C45CC6CC(CC(C6)C4)C5)cc3c2)cc1 [CD1530]
Compared to the 4-NQO group
  cytochrome P450 enzymes (pathway analysis): significantly elevated
[1]
  candidates contained, pathway Cell cycle-Mus musculus (mouse): 23 (18.1%)
  candidates contained, pathway DNA replication-Mus musculus (mouse): 9 (25.0%)
  candidates contained, pathway ECM-receptor interaction-Mus musculus (mouse): 13 (15.1%)
  candidates contained, pathway Pathways in cancer-Mus musculus (mouse): 27 (8.4%)
  candidates contained, pathway Small cell lung cancer-Mus musculus (mouse): 13 (14.9%)
  candidates contained, pathway p53 signaling pathway-Mus musculus (mouse): 12 (17.4%)
[2]
  candidates contained, pathway Activation of ATR in response to replication stress: 11 (28.9%)
  candidates contained, pathway Activation of the pre-replicative complex: 11 (37.9%)
  candidates contained, pathway Assembly of the pre-replicative complex: 9 (40.9%)
  candidates contained, pathway Cell Cycle: 54 (17.8%)
  candidates contained, pathway Cell Cycle Checkpoints: 19 (24.7%)
  candidates contained, pathway Cell Cycle, Mitotic: 52 (19.4%)
  candidates contained, pathway Cyclin A/B1 associated events during G2/M transition: 6 (37.5%)
  candidates contained, pathway Cyclin B2 mediated events: 4 (80.0%)
  candidates contained, pathway DNA Replication: 41 (26.1%)
  candidates contained, pathway DNA Replication Pre-Initiation: 12 (33.3%)
  candidates contained, pathway DNA strand elongation: 8 (25.8%)
  candidates contained, pathway G1/S Transition: 14 (22.6%)
  candidates contained, pathway G2/M Checkpoints: 14 (31.1%)
  candidates contained, pathway M Phase: 27 (27.3%)
  candidates contained, pathway M/G1 Transition: 12 (33.3%)
  candidates contained, pathway Mitotic G1-G1/S phases: 16 (21.9%)
  candidates contained, pathway Mitotic M-M/G1 phases: 39 (28.9%)
  candidates contained, pathway Mitotic Prometaphase: 26 (27.4%)
  candidates contained, pathway Orc1 removal from chromatin: 8 (28.6%)
  candidates contained, pathway Regulation of DNA replication: 10 (33.3%)
  candidates contained, pathway Removal of licensing factors from origins: 10 (33.3%)
  candidates contained, pathway S Phase: 12 (17.4%)
  candidates contained, pathway Switching of origins to a post-replicative state: 8 (28.6%)
  candidates contained, pathway Synthesis of DNA: 11 (20.4%)
  candidates contained, pathway Unwinding of DNA: 6 (54.5%)
[3]
  candidates contained, pathway Arachidonic acid metabolism-Mus musculus (mouse): 25 (26.6%)
  candidates contained, pathway Ascorbate and aldarate metabolism-Mus musculus (mouse): 11 (42.3%)
  candidates contained, pathway Bile secretion-Mus musculus (mouse): 23 (32.4%)
  candidates contained, pathway Biosynthesis of unsaturated fatty acids-Mus musculus (mouse): 10 (40.0%)
  candidates contained, pathway Complement and coagulation cascades-Mus musculus (mouse): 38 (50.0%)
  candidates contained, pathway Drug metabolism-cytochrome P450-Mus musculus (mouse): 52 (59.8%)
  candidates contained, pathway Drug metabolism-other enzymes-Mus musculus (mouse): 22 (39.3%)
  candidates contained, pathway Fatty acid metabolism-Mus musculus (mouse): 13 (26.5%)
  candidates contained, pathway Glycine, serine and threonine metabolism-Mus musculus (mouse): 12 (30.8%)
  candidates contained, pathway Linoleic acid metabolism-Mus musculus (mouse): 24 (53.3%)
  candidates contained, pathway Maturity onset diabetes of the young-Mus musculus (mouse): 11 (42.3%)
  candidates contained, pathway Metabolic pathways-Mus musculus (mouse): 160 (13.4%)
  candidates contained, pathway Metabolism of xenobiotics by cytochrome P450-Mus musculus (mouse): 50 (55.6%)
  candidates contained, pathway PPAR signaling pathway-Mus musculus (mouse): 24 (29.6%)
  candidates contained, pathway Pentose and glucuronate interconversions-Mus musculus (mouse): 11 (34.4%)
  candidates contained, pathway Peroxisome-Mus musculus (mouse): 18 (22.8%)
  candidates contained, pathway Primary bile acid biosynthesis-Mus musculus (mouse): 8 (50.0%)
  candidates contained, pathway Propanoate metabolism-Mus musculus (mouse): 11 (34.4%)
  candidates contained, pathway Retinol metabolism-Mus musculus (mouse): 42 (53.2%)
  candidates contained, pathway Serotonergic synapse-Mus musculus (mouse): 24 (17.3%)
  candidates contained, pathway Steroid hormone biosynthesis-Mus musculus (mouse): 19 (34.5%)
  candidates contained, pathway Tryptophan metabolism-Mus musculus (mouse): 16 (36.4%)
  candidates contained, pathway Tyrosine metabolism-Mus musculus (mouse): 11 (28.2%)
  candidates contained, pathway beta-Alanine metabolism-Mus musculus (mouse): 10 (33.3%)
[4]
  candidates contained, pathway bupropion degradation: 29 (74.4%)
  candidates contained, pathway nicotine degradation II: 41 (65.1%)
  candidates contained, pathway nicotine degradation III: 35 (63.6%)
[5]
  candidates contained, pathway Activation of C3 and C5: 5 (83.3%)
  candidates contained, pathway Bile acid and bile salt metabolism: 19 (50.0%)
  candidates contained, pathway Biological oxidations: 64 (40.5%)
  candidates contained, pathway Chylomicron-mediated lipid transport: 11 (61.1%)
  candidates contained, pathway Common Pathway: 9 (69.2%)
  candidates contained, pathway Complement cascade: 11 (39.3%)
  candidates contained, pathway Cytochrome P450-arranged by substrate type: 42 (51.2%)
  candidates contained, pathway Formation of Fibrin Clot (Clotting Cascade): 18 (52.9%)
  candidates contained, pathway Gamma-carboxylation of protein precursors: 6 (66.7%)
  candidates contained, pathway Gamma-carboxylation, transport, and amino-terminal cleavage of proteins: 6 (60.0%)
  candidates contained, pathway HDL-mediated lipid transport: 9 (52.9%)
  candidates contained, pathway Intrinsic Pathway: 10 (50.0%)
  candidates contained, pathway Lipid digestion, mobilization, and transport: 18 (36.7%)
  candidates contained, pathway Lipoprotein metabolism: 16 (51.6%)
  candidates contained, pathway Metabolism: 181 (18.6%)
  candidates contained, pathway Metabolism of amino acids and derivatives: 34 (27.4%)
  candidates contained, pathway Metabolism of lipids and lipoproteins: 57 (21.8%)
  candidates contained, pathway Miscellaneous substrates: 10 (55.6%)
  candidates contained, pathway Phase 1-Functionalization of compounds: 51 (51.5%)
  candidates contained, pathway Phase II conjugation: 14 (23.3%)
  candidates contained, pathway Phenylalanine and tyrosine catabolism: 7 (87.5%)
  candidates contained, pathway Platelet degranulation: 19 (29.7%)
  candidates contained, pathway Recycling of bile acids and salts: 7 (50.0%)
  candidates contained, pathway Removal of aminoterminal propeptides from gamma-carboxylated proteins: 6 (66.7%)
  candidates contained, pathway Response to elevated platelet cytosolic Ca2+: 19 (27.1%)
  candidates contained, pathway Synthesis of bile acids and bile salts: 15 (55.6%)
  candidates contained, pathway Synthesis of bile acids and bile salts via 7alpha-hydroxycholesterol: 15 (65.2%)
  candidates contained, pathway Synthesis of bile acids and bile salts via 24-hydroxycholesterol: 11 (61.1%)
  candidates contained, pathway Synthesis of bile acids and bile salts via 27-hydroxycholesterol: 8 (57.1%)
  candidates contained, pathway Terminal pathway of complement: 5 (83.3%)
  candidates contained, pathway Transport of gamma-carboxylated protein precursors from the ER to the Golgi apparatus: 6 (75.0%)
  candidates contained, pathway Xenobiotics: 31 (81.6%)
